Experimental data published in US9393198B2 (SIGNPATH PHARMA INC., priority 2010, dated 2016).

Columns and labels:
[1] = test system: murine multipotent neural progenitor cells (NPC); conditions: cited from earlier work
PC12 cells = conditions: cultured PC12 cells; cited from earlier work
[2] = test system: sodium arsenite neuro-behavioral neurotransmission toxicity; conditions: rats, arsenite 20 mg/kg for 28 days; oral curcumin 100 mg/kg daily × 28 days; cited from earlier work
[3] = Brain tissue and plasma curcumin levels in rats after intravenous bolus injection (HPLC); type: in vivo, Sprague-Dawley rats; conditions: intravenous curcumin formulations
6-OHDA toxicity = conditions: rat; cited from earlier work
[4] = test system: chronic unpredictable mild stress (CUMS); conditions: CUMS rats; cited from earlier work
[5] = test system: Alzheimer's Disease mice (ALCL3 orally and D-galactose IP for 90 days); conditions: cited from earlier work
[6] = test system: homocysteine directly injected into the hippocampus; conditions: intraperitoneal curcumin; cited from earlier work

## COc1cc(C=CC(=O)CC(=O)C=Cc2ccc(O)c(OC)c2)ccc1O [curcumin, 1,7-bis(4-hydroxy-3-methoxyphenyl)-1,6-heptadiene-3,5-dione]
[1]
  Concentration that decreases proliferation of NPCs and cancer cells: > 10 µM
[1]; hippocampus stem and neuronal progenitor cells, high concentration
  Concentration that inhibits neurogenesis and neuroplasticity: 10 µM
[1]; hippocampus stem and neuronal progenitor cells, low concentration
  Concentration that enhances / stimulates hippocampal neurogenesis: 500 nM
[1]; ×24-48 h, NPC but not tumor cells
  Concentration that increases NPC proliferation: 0.1 to 0.5 µM
PC12 cells
  Apoptosis induced by AlCl3: inhibits apoptosis
[2]
  Effect on arsenite-induced deleterious effects: counteracted
[3]
  Curcumin detectible in the hippocampus, brainstem and striatum, share of dose: less than 0.5 % of the total injected dose
6-OHDA toxicity
  Effect on 6-OHDA toxicity in striatum and Substantia Nigrum: protects
[4]
  Effect on chronic unpredictable mild stress (CUMS): improves chronic unpredictable mild stress
[5]
  Memory ability, step-through test: improves the memory ability
[6]
  Activity against homocysteine injected into the hippocampus: neuroprotective activity
